Reference: patent publication US20040258620A1, “(Ethylene)-( propylene)-triaminepentaacetic acid derivatives, process for their production, and their use for the production of pharmaceutical agents” (priority 2001, published 2004)
Where “and” joins values, the source holds several entries; their conditions need not be identical. Identical values can stand only once.

Tests used:
[1] = Variable temperature 17O NMR relaxation rates and chemical shifts of GdEPTPA-bz-NO2; assay type: physicochemical; conditions: for ^17O NMR T1 / ^17O NMR T2 / ^17O NMR ν / ^17O NMR chemical shift Δw / ^17O NMR reduced chemical shift Δwr: C = 55.79 mM; for ^17O NMR T1 / ^17O NMR T2 / ^17O NMR ν: pH = 6.0; for ^17O NMR chemical shift Δw / ^17O NMR reduced chemical shift Δwr: pH = 6.0, reference = HClO4
Excerpt: (§1) The Gd(EPTPA-bz-NO2) complex (Formula VII, Z is NO2) has been investigated by ^17O NMR, EPR and ^1H NMRD.

[2] = Proton relaxivities (1H NMRD profiles) of Gd(EPTPA-bz-NO2); assay type: physicochemical
Procedure: According to the ^17O chemical shifts, the complex has one inner sphere water molecule. […] The water exchange rate obtained for […]) is in the optimal range to attain high proton relaxivities. This property, together with the high thermodynamic stability, is a unique feature among Gd(III) chelates known so far and it makes […]) an ideal synthon to be attached to any rigid, slowly tumbling macromolecular agent. […] (bottom curve) and 25° C. (top curve).

[3] = Peak-to-peak line widths of the EPR band at 0.34 T; assay type: physicochemical; parameters: unit not given here
Excerpt: as §1

[4] = Simultaneous analysis of 17O NMR, EPR and NMRD data
Excerpt: The ^17O NMR, NMRD and EPR experimental data (points) and the fitted curves (lines) as obtained in a simultaneous analysis, according to the method of Powell et al., J. Am. Chem. Soc.

[5] = Stability constants of the complexes formed with Zn(II) by pH-potentiometry; assay type: physicochemical; conditions: I=0.1M TMACI, t=25° C.; for logKZnL: stability constant
Excerpt: (§2) Protonation constants of the two ligands, DPTPA and EPTPA-Bz-NO2, and stability constants of their complexes formed with Gd(III) and some endogenously available cations have been determined by pH-potentiometry. The selectivity of the ligand for Gd(III) over Zn(II) (log(KGdL/KZnL)) is especially important as it directly relates to the safety of the Gd(III) contrast agent.

[6] = Stability constants of the Ca complexes by pH-potentiometry; assay type: physicochemical; conditions: for logKCaL: stability constant
Excerpt: as §2

[7] = Stability constants of the complexes formed with Gd(III) by pH-potentiometry; assay type: physicochemical; conditions: I=0.1M TMACI, t=25° C.; for logKGdL: stability constant
Excerpt: as §2

[8] = Protonation constants of the ligands by pH-potentiometry; assay type: physicochemical; conditions: protonation constant of the ligand; I=0.1M TMACI, t=25° C.
Excerpt: as §2

[9] = Gd(III) complex of the ligand, water exchange

Question: Which results are given for O=C([O-])CN(CCCN(CC(=O)[O-])CC(Cc1ccc([N+](=O)[O-])cc1)N(CC(=O)[O-])CC(=O)[O-])CC(=O)[O-].[Gd+3] (stereo not shown) [Gd(EPTPA-bz-NO2)]?
Answer: ^17O NMR T1 ([1]; T 274.5 K): 0.00301 s; ^17O NMR T2 ([1]; T 274.5 K): 0.00135 s; ^17O NMR ν ([1]; T 274.5 K): −3678.6 Hz; ^17O NMR chemical shift Δw ([1]; T 274.5 K): −133.1 Hz; ^17O NMR reduced chemical shift Δwr ([1]; T 274.5 K): −8.33E+05 Hz; ^17O NMR T1 ([1]; T 286.7 K): 0.00428 s; ^17O NMR T2 ([1]; T 286.7 K): 0.00167 s; ^17O NMR ν ([1]; T 286.7 K): −3686.0 Hz; ^17O NMR chemical shift Δw ([1]; T 286.7 K): −125.36 Hz; ^17O NMR reduced chemical shift Δwr ([1]; T 286.7 K): −7.84E+05 Hz; ^17O NMR T1 ([1]; T 293.5 K): 0.00513 s; ^17O NMR T2 ([1]; T 293.5 K): 0.00198 s; ^17O NMR ν ([1]; T 293.5 K): −3690.4 Hz; ^17O NMR chemical shift Δw ([1]; T 293.5 K): −125.25 Hz; ^17O NMR reduced chemical shift Δwr ([1]; T 293.5 K): −7.84E+05 Hz; ^17O NMR T1 ([1]; T 298.0 K): 0.00599 s; ^17O NMR T2 ([1]; T 298.0 K): 0.00263 s; ^17O NMR ν ([1]; T 298.0 K): −3705.7 Hz; ^17O NMR chemical shift Δw ([1]; T 298.0 K): −123.5 Hz; ^17O NMR reduced chemical shift Δwr ([1]; T 298.0 K): −7.73E+05 Hz; ^17O NMR T1 ([1]; T 306.7 K): 0.00734 s; ^17O NMR T2 ([1]; T 306.7 K): 0.00263 s; ^17O NMR ν ([1]; T 306.7 K): −3702.7 Hz; ^17O NMR chemical shift Δw ([1]; T 306.7 K): −120.4 Hz; ^17O NMR reduced chemical shift Δwr ([1]; T 306.7 K): −7.53E+05 Hz; ^17O NMR T1 ([1]; T 324.2 K): 0.0104 s; ^17O NMR T2 ([1]; T 324.2 K): 0.00425 s; ^17O NMR ν ([1]; T 324.2 K): −3751.5 Hz; ^17O NMR chemical shift Δw ([1]; T 324.2 K): −121.2 Hz; ^17O NMR reduced chemical shift Δwr ([1]; T 324.2 K): −7.58E+05 Hz; ^17O NMR T1 ([1]; T 338.7 K): 0.0137 s; ^17O NMR T2 ([1]; T 338.7 K): 0.00616 s; ^17O NMR ν ([1]; T 338.7 K): −3764.2 Hz; ^17O NMR chemical shift Δw ([1]; T 338.7 K): −99.4 Hz; ^17O NMR reduced chemical shift Δwr ([1]; T 338.7 K): −6.22E+05 Hz; ^17O NMR T1 ([1]; T 359.7 K): 0.0189 s; ^17O NMR T2 ([1]; T 359.7 K): 0.00967 s; ^17O NMR ν ([1]; T 359.7 K): −3803.0 Hz; ^17O NMR chemical shift Δw ([1]; T 359.7 K): −95.8 Hz; ^17O NMR reduced chemical shift Δwr ([1]; T 359.7 K): −5.99E+05 Hz; inner sphere water molecules of the complex ([1]; according to the ^17O chemical shifts): one; Proton relaxivity ([2]; 24.8° C., proton Larmor frequency 0.022 MHz): 8.54 mM⁻¹ s⁻¹; Proton relaxivity ([2]; 24.8° C., proton Larmor frequency 0.036 MHz): 8.63 mM⁻¹ s⁻¹; Proton relaxivity ([2]; 24.8° C., proton Larmor frequency 0.061 MHz): 8.69 mM⁻¹ s⁻¹; Proton relaxivity ([2]; 24.8° C., proton Larmor frequency 0.101 MHz): 8.34 mM⁻¹ s⁻¹; Proton relaxivity ([2]; 24.8° C., proton Larmor frequency 0.168 MHz): 8.47 mM⁻¹ s⁻¹; Proton relaxivity ([2]; 24.8° C., proton Larmor frequency 0.280 MHz): 8.55 mM⁻¹ s⁻¹; Proton relaxivity ([2]; 24.8° C., proton Larmor frequency 0.467 MHz): 8.21 mM⁻¹ s⁻¹; Proton relaxivity ([2]; 24.8° C., proton Larmor frequency 0.778 MHz): 8.29 mM⁻¹ s⁻¹ and 8.39 mM⁻¹ s⁻¹; Proton relaxivity ([2]; 24.8° C., proton Larmor frequency 2.159 MHz): 7.41 mM⁻¹ s⁻¹; Proton relaxivity ([2]; 24.8° C., proton Larmor frequency 3.598 MHz): 7.23 mM⁻¹ s⁻¹; Proton relaxivity ([2]; 24.8° C., proton Larmor frequency 5.999 MHz): 6.33 mM⁻¹ s⁻¹; Proton relaxivity ([2]; 24.8° C., proton Larmor frequency 9.998 MHz): 5.56 mM⁻¹ s⁻¹; Proton relaxivity ([2]; 24.8° C., proton Larmor frequency 12.001 MHz): 5.47 mM⁻¹ s⁻¹; Proton relaxivity ([2]; 24.8° C., proton Larmor frequency 14.002 MHz): 5.15 mM⁻¹ s⁻¹; Proton relaxivity ([2]; 24.8° C., proton Larmor frequency 16.000 MHz): 4.98 mM⁻¹ s⁻¹; Proton relaxivity ([2]; 24.8° C., proton Larmor frequency 18.002 MHz): 4.91 mM⁻¹ s⁻¹; Proton relaxivity ([2]; 24.8° C., proton Larmor frequency 20.001 MHz): 4.73 mM⁻¹ s⁻¹; Proton relaxivity ([2]; 37.3° C., proton Larmor frequency 0.022 MHz): 6.47 mM⁻¹ s⁻¹; Proton relaxivity ([2]; 37.3° C., proton Larmor frequency 0.036 MHz): 6.56 mM⁻¹ s⁻¹; Proton relaxivity ([2]; 37.3° C., proton Larmor frequency 0.061 MHz): 6.44 mM⁻¹ s⁻¹; Proton relaxivity ([2]; 37.3° C., proton Larmor frequency 0.101 MHz): 6.90 mM⁻¹ s⁻¹; Proton relaxivity ([2]; 37.3° C., proton Larmor frequency 0.168 MHz): 6.55 mM⁻¹ s⁻¹; Proton relaxivity ([2]; 37.3° C., proton Larmor frequency 0.280 MHz): 6.57 mM⁻¹ s⁻¹; Proton relaxivity ([2]; 37.3° C., proton Larmor frequency 0.467 MHz): 6.49 mM⁻¹ s⁻¹; Proton relaxivity ([2]; 37.3° C., proton Larmor frequency 0.778 MHz): 6.19 mM⁻¹ s⁻¹ and 6.36 mM⁻¹ s⁻¹; Proton relaxivity ([2]; 37.3° C., proton Larmor frequency 2.159 MHz): 5.80 mM⁻¹ s⁻¹; Proton relaxivity ([2]; 37.3° C., proton Larmor frequency 3.598 MHz): 5.67 mM⁻¹ s⁻¹; Proton relaxivity ([2]; 37.3° C., proton Larmor frequency 5.999 MHz): 5.21 mM⁻¹ s⁻¹; Proton relaxivity ([2]; 37.3° C., proton Larmor frequency 9.998 MHz): 4.42 mM⁻¹ s⁻¹; Proton relaxivity ([2]; 37.3° C., proton Larmor frequency 12.001 MHz): 4.18 mM⁻¹ s⁻¹; Proton relaxivity ([2]; 37.3° C., proton Larmor frequency 14.002 MHz): 4.20 mM⁻¹ s⁻¹; Proton relaxivity ([2]; 37.3° C., proton Larmor frequency 16.000 MHz): 4.26 mM⁻¹ s⁻¹; Proton relaxivity ([2]; 37.3° C., proton Larmor frequency 18.002 MHz): 4.12 mM⁻¹ s⁻¹; ΔHpp, peak-to-peak line width of the EPR band ([3]; T 3 ° C.): 363.25; ΔHpp, peak-to-peak line width of the EPR band ([3]; T 23.5 ° C.): 297.4; ΔHpp, peak-to-peak line width of the EPR band ([3]; T 34.1 ° C.): 286; ΔHpp, peak-to-peak line width of the EPR band ([3]; T 40.3 ° C.): 280.2; ΔHpp, peak-to-peak line width of the EPR band ([3]; T 47.6 ° C.): 283.15; ΔHpp, peak-to-peak line width of the EPR band ([3]; T 56.3 ° C.): 297.4; ΔHpp, peak-to-peak line width of the EPR band ([3]; T 72.4 ° C.): 326; water exchange rate kex^298 [4]: 1.4e+08 s⁻¹; water exchange rate, times higher than that measured on Gd(DTPA) ([4]; relative to Gd(DTPA)): 40 times

Question: What does the source list for O=C(O)CN(CCCN(CC(=O)O)CC(=O)O)CCCN(CC(=O)O)CC(=O)O [DPTPA]?
Answer: logKZnH2L [5]: 3.17; logKZnHL [5]: 8.06; logKZnL [5]: 15.60; logKCaH2L [6]: 6.01; logKCaHL [6]: 8.63; logKCaL [6]: 6.01; logKGdH2L [7]: 5.43; logKGdHL [7]: 6.30; logKGdL [7]: 13.00; pKa1 [8]: 10.91; pKa2 [8]: 9.29; pKa3 [8]: 7.07; pKa4 [8]: 2.76; pKa5 [8]: 2.19

Question: Which results are given for O=C(O)CN(CCCN(CC(=O)O)CC(Cc1ccc([N+](=O)[O-])cc1)N(CC(=O)O)CC(=O)O)CC(=O)O (stereo not shown) [EPTPA-bz-NO2]?
Answer: logKZnH2L [5]: 2.53; logKZnHL [5]: 8.99; logKZnL [5]: 16.01; logKCaHL [6]: 7.04; logKCaL [6]: 10.02; logKGdH2L [7]: 2.40; logKGdHL [7]: 3.35; logKGdL [7]: 19.31; A/ħ ([4]; Gd(III) complex of the ligand): −3.5 ± 0.2 10^6 rad s^−1; Er ([4]; Gd(III) complex of the ligand): 19.9 ± 1.7 kJ/mol; Δ^2 ([4]; Gd(III) complex of the ligand): 0.37 ± 0.03 10^20 s^−1; τr ([4]; Gd(III) complex of the ligand): 84.6 ± 6 ps; τy ([4]; Gd(III) complex of the ligand): 20 ± 1 ps; ΔH^‡ [4, 9]: 23.7 ± 1.8 kJ/mol; ΔS^‡ [4, 9]: −9.2 ± 4.0 J mol^−1K^−1; kex^298 ([4]; Gd(III) complex of the ligand, water exchange rate): 146 ± 23 10^6 s^−1; pKa1 [8]: 10.86; pKa2 [8]: 8.94; pKa3 [8]: 4.70; pKa4 [8]: 3.25; pKa5 [8]: 2.51
